Laboratory results taken from ChEMBL document CHEMBL3351554, “Benzophenone C- and O-glucosides from Cyclopia genistoides (Honeybush) inhibit mammalian α-glucosidase” (2014).
Active and inactive are the calls of the source. No cut-off for these calls is given here.

Assays:
Rattus norvegicus [1] = species on record: Rattus norvegicus; assay: Inhibition of rat intestinal alpha-glucosidase using 7-O-alpha-D-glucopyranosyl 4-methylumbelliferone preincubated for 15 mins at 100 to 400 uM prior substrate addition measured over 30 mins by fluorescence assay
L6 = assay: Increase in [3H]-2-DOG uptake in rat L6 cells at 10 uM after 1 hr by liquid scintillation counting relative to vehicle-treated control; format: functional
Rattus norvegicus [2] = species on record: Rattus norvegicus; assay: Inhibition of rat intestinal alpha-glucosidase using 7-O-alpha-D-glucopyranosyl 4-methylumbelliferone preincubated for 15 mins at 200 uM prior substrate addition measured over 30 mins by fluorescence assay
3T3-L1 = assay: Increase in [3H]-2-DOG uptake in mouse 3T3L1 cells at 0.001 to 100 uM after 3 hrs by liquid scintillation counting relative to vehicle-treated control
HepG2/C3A = assay: Increase in [3H]-2-DOG uptake in human HepG2/C3A cells at 0.001 to 100 uM after 3 hr by liquid scintillation counting relative to vehicle-treated control
Rattus norvegicus [3] = species on record: Rattus norvegicus; assay: Inhibition of rat intestinal alpha-glucosidase using 7-O-alpha-D-glucopyranosyl 4-methylumbelliferone preincubated for 15 mins at 50 to 200 uM prior substrate addition measured over 30 mins by fluorescence assay

**Q.** Which inhibition (Rattus norvegicus [1]) does the source give for `O=C(c1ccc(O)cc1)c1c(O)cc(O[C@@H]2O[C@H](CO)[C@@H](O)[C@H](O)[C@H]2O)c([C@@H]2O[C@H](CO)[C@@H](O)[C@H](O)[C@H]2O)c1O` here?
**A.** Active

**Q.** And the Activity (L6)?
**A.** 22%

**Q.** And the inhibition (Rattus norvegicus [2])?
**A.** 43%

**Q.** And the Activity (3T3-L1)?
**A.** Active

**Q.** And the Activity (HepG2/C3A)?
**A.** Active

**Q.** For `O=C(c1ccc(O)cc1)c1c(O)cc(O)c([C@@H]2O[C@H](CO)[C@@H](O)[C@H](O)[C@H]2O)c1O`, which inhibition (Rattus norvegicus [1]) is on record?
**A.** Active

**Q.** And the Activity (3T3-L1)?
**A.** Active

**Q.** And the Activity (HepG2/C3A)?
**A.** Active

**Q.** Which inhibition (Rattus norvegicus [3]) does the source give for `O=C(c1ccc(O)c(O)c1)c1c(O)cc(O)cc1O` here?
**A.** inactive

**Q.** For `O=C(c1ccc(O)c(O)c1)c1c(O)cc(O)c([C@@H]2O[C@H](CO)[C@@H](O)[C@H](O)[C@H]2O)c1O`, which inhibition (Rattus norvegicus [2]) is on record?
**A.** 54%
